Key:
[1] = The drug is tested on Bifidobacterium breve strain: DSM20213 for biotransformation. The drug concentrations were measured before and after a 12-h incubation by liquid-chromatography-coupled mass spectrometry (LC–MS); conditions: 2 µM
[2] = The drug is tested on Collinsella aerofaciens strain: ATCC25986 for biotransformation. The drug concentrations were measured before and after a 12-h incubation by liquid-chromatography-coupled mass spectrometry (LC–MS); conditions: 2 µM
[3] = The drug is tested on Alistipes indistinctus strain: DSM22520 for biotransformation. The drug concentrations were measured before and after a 12-h incubation by liquid-chromatography-coupled mass spectrometry (LC–MS); conditions: 2 µM
[4] = The drug is tested on Bacteroides cellulosilyticus strain: DSM14838 for biotransformation. The drug concentrations were measured before and after a 12-h incubation by liquid-chromatography-coupled mass spectrometry (LC–MS); conditions: 2 µM
[5] = The drug is tested on Bacteroides fragilis strain: HMW610 for biotransformation. The drug concentrations were measured before and after a 12-h incubation by liquid-chromatography-coupled mass spectrometry (LC–MS); conditions: 2 µM
[6] = The drug is tested on Anaerotruncus colihominis strain: DSM17241 for biotransformation. The drug concentrations were measured before and after a 12-h incubation by liquid-chromatography-coupled mass spectrometry (LC–MS); conditions: 2 µM
[7] = The drug is tested on Clostridium scindens strain: ATCC35704 for biotransformation. The drug concentrations were measured before and after a 12-h incubation by liquid-chromatography-coupled mass spectrometry (LC–MS); conditions: 2 µM
[8] = The drug is tested on Clostridium sporogenes strain: ATCC15579 for biotransformation. The drug concentrations were measured before and after a 12-h incubation by liquid-chromatography-coupled mass spectrometry (LC–MS); conditions: 2 µM
[9] = The drug is tested on Edwardsiella tarda strain: ATCC23685 for biotransformation. The drug concentrations were measured before and after a 12-h incubation by liquid-chromatography-coupled mass spectrometry (LC–MS); conditions: 2 µM
[10] = The drug is tested on Enterobacter cancerogenus strain: ATCC35316 for biotransformation. The drug concentrations were measured before and after a 12-h incubation by liquid-chromatography-coupled mass spectrometry (LC–MS); conditions: 2 µM
[11] = bifidobacterium adolescentis, 12 h, 2 µM
Description: The drug is tested on Bifidobacterium adolescentis strain: ATCC 15703 for biotransformation. The drug concentrations were measured before and after a 12-h incubation by liquid-chromatography-coupled mass spectrometry (LC–MS)

[12] = bacteroides fragilis, 12 h, 2 µM
Description: The drug is tested on Bacteroides fragilis strain: NCTC 9343 for biotransformation. The drug concentrations were measured before and after a 12-h incubation by liquid-chromatography-coupled mass spectrometry (LC–MS)

[13] = bacteroides fragilis, 12 h, 2 µM; remark: listed apart in the source
Description: The drug is tested on Bacteroides fragilis strain: 3397 (T10) for biotransformation. The drug concentrations were measured before and after a 12-h incubation by liquid-chromatography-coupled mass spectrometry (LC–MS)

[14] = bacteroides thetaiotaomicron, 12 h, 2 µM
Description: The drug is tested on Bacteroides thetaiotaomicron strain: 7330 for biotransformation. The drug concentrations were measured before and after a 12-h incubation by liquid-chromatography-coupled mass spectrometry (LC–MS)

[15] = segatella copri, 12 h, 2 µM
Description: The drug is tested on Prevotella copri strain: DSM18205 for biotransformation. The drug concentrations were measured before and after a 12-h incubation by liquid-chromatography-coupled mass spectrometry (LC–MS)

[16] = anaerostipes sp., 12 h, 2 µM
Description: The drug is tested on Anaerostipes sp. strain: fecal isolate for biotransformation. The drug concentrations were measured before and after a 12-h incubation by liquid-chromatography-coupled mass spectrometry (LC–MS)

[17] = limosilactobacillus reuteri cf48-3a, 12 h, 2 µM
Description: The drug is tested on Lactobacillus reuteri CF48-3A strain: BEI HM-102 for biotransformation. The drug concentrations were measured before and after a 12-h incubation by liquid-chromatography-coupled mass spectrometry (LC–MS)

[18] = The drug is tested on Enterococcus faecalis strain: V583 for biotransformation. The drug concentrations were measured before and after a 12-h incubation by liquid-chromatography-coupled mass spectrometry (LC–MS); conditions: 2 µM
[19] = bacteroides thetaiotaomicron, 12 h, 2 µM; remark: listed apart in the source
Description: The drug is tested on Bacteroides thetaiotaomicron strain: VPI-5482 for biotransformation. The drug concentrations were measured before and after a 12-h incubation by liquid-chromatography-coupled mass spectrometry (LC–MS)

[20] = roseburia intestinalis, 12 h, 2 µM
Description: The drug is tested on Roseburia intestinalis strain: L1-82 for biotransformation. The drug concentrations were measured before and after a 12-h incubation by liquid-chromatography-coupled mass spectrometry (LC–MS)

| SMILES | Bacterial Biotransformation [1] | Bacterial Biotransformation [2] | Bacterial Biotransformation [3] | Bacterial Biotransformation [4] | Bacterial Biotransformation [5] | Bacterial Biotransformation [6] | Bacterial Biotransformation [7] | Bacterial Biotransformation [8] | Bacterial Biotransformation [9] | Bacterial Biotransformation [10] | Bacterial Biotransformation [11] | Bacterial Biotransformation [12] | Bacterial Biotransformation [13] | Bacterial Biotransformation [14] | Bacterial Biotransformation [15] | Bacterial Biotransformation [16] | Bacterial Biotransformation [17] | Bacterial Biotransformation [18] | Bacterial Biotransformation [19] | Bacterial Biotransformation [20] |
| --- | --- | --- | --- | --- | --- | --- | --- | --- | --- | --- | --- | --- | --- | --- | --- | --- | --- | --- | --- | --- |
| C#C[C@]1(O)CC[C@H]2[C@@H]3CCC4=CC(=O)CC[C@@H]4[C@H]3CC[C@@]21CC [LEVONORGESTREL] | Compound NOT metabolized | Compound NOT metabolized | Compound NOT metabolized | Compound metabolized | Compound metabolized | Compound NOT metabolized | Compound NOT metabolized | Compound metabolized | Compound NOT metabolized | Compound NOT metabolized | Compound NOT metabolized | Compound metabolized | Compound metabolized | Compound metabolized | Compound NOT metabolized | Compound NOT metabolized | Compound NOT metabolized | – | – | – |
| OC(Cn1cncn1)(Cn1cncn1)c1ccc(F)cc1F [FLUCONAZOLE] | Compound NOT metabolized | Compound NOT metabolized | Compound NOT metabolized | Compound NOT metabolized | Compound metabolized | Compound metabolized | Compound metabolized | Compound metabolized | Compound NOT metabolized | Compound NOT metabolized | Compound NOT metabolized | Compound metabolized | Compound metabolized | Compound metabolized | Compound NOT metabolized | Compound NOT metabolized | Compound NOT metabolized | Compound NOT metabolized | Compound metabolized | – |
| CO[C@]12C[C@@H](COC(=O)c3cncc(Br)c3)CN(C)[C@@H]1Cc1cn(C)c3cccc2c13 [NICERGOLINE] | Compound NOT metabolized | – | Compound NOT metabolized | Compound metabolized | – | Compound NOT metabolized | Compound NOT metabolized | Compound NOT metabolized | Compound NOT metabolized | Compound NOT metabolized | Compound NOT metabolized | Compound NOT metabolized | Compound NOT metabolized | Compound NOT metabolized | Compound NOT metabolized | Compound NOT metabolized | Compound NOT metabolized | Compound NOT metabolized | Compound NOT metabolized | Compound NOT metabolized |
| CC(C)(C)NC(=O)[C@H]1CC[C@H]2[C@@H]3CC[C@H]4NC(=O)C=C[C@]4(C)[C@H]3CC[C@]12C [FINASTERIDE] | Compound NOT metabolized | Compound NOT metabolized | Compound NOT metabolized | Compound NOT metabolized | Compound metabolized | Compound NOT metabolized | Compound metabolized | Compound NOT metabolized | Compound NOT metabolized | Compound NOT metabolized | Compound NOT metabolized | Compound metabolized | Compound NOT metabolized | – | Compound NOT metabolized | Compound NOT metabolized | Compound NOT metabolized | Compound NOT metabolized | Compound NOT metabolized | – |
| CCN(CC)CCOC(=O)C(Cc1cccc2ccccc12)CC1CCCO1.O=C(O)C(=O)O (stereo not drawn) [NAFRONYL OXALATE] | Compound NOT metabolized | Compound NOT metabolized | Compound NOT metabolized | Compound NOT metabolized | – | Compound NOT metabolized | Compound NOT metabolized | Compound NOT metabolized | Compound NOT metabolized | Compound NOT metabolized | Compound NOT metabolized | Compound metabolized | Compound NOT metabolized | Compound NOT metabolized | Compound metabolized | Compound NOT metabolized | Compound NOT metabolized | Compound NOT metabolized | Compound NOT metabolized | Compound NOT metabolized |
| NC(=O)N1c2ccccc2CC(=O)c2ccccc21 [OXCARBAZEPINE] | Compound NOT metabolized | Compound NOT metabolized | Compound metabolized | Compound NOT metabolized | Compound NOT metabolized | Compound NOT metabolized | Compound metabolized | Compound metabolized | Compound metabolized | Compound metabolized | Compound metabolized | Compound NOT metabolized | – | – | Compound NOT metabolized | Compound NOT metabolized | Compound metabolized | Compound NOT metabolized | – | Compound metabolized |
| Fc1ccc([C@@H]2CCNC[C@H]2COc2ccc3c(c2)OCO3)cc1 [PAROXETINE] | Compound NOT metabolized | Compound NOT metabolized | Compound NOT metabolized | Compound metabolized | Compound NOT metabolized | Compound metabolized | Compound NOT metabolized | – | Compound NOT metabolized | Compound metabolized | Compound NOT metabolized | Compound NOT metabolized | Compound NOT metabolized | Compound NOT metabolized | Compound NOT metabolized | Compound metabolized | Compound NOT metabolized | Compound NOT metabolized | Compound NOT metabolized | Compound NOT metabolized |
| Cc1nc(Nc2ncc(C(=O)Nc3c(C)cccc3Cl)s2)cc(N2CCN(CCO)CC2)n1.O [DASATINIB] | Compound NOT metabolized | Compound NOT metabolized | Compound NOT metabolized | Compound NOT metabolized | Compound metabolized | Compound metabolized | Compound metabolized | Compound NOT metabolized | – | Compound NOT metabolized | Compound metabolized | Compound metabolized | Compound metabolized | Compound NOT metabolized | Compound metabolized | Compound metabolized | Compound metabolized | Compound NOT metabolized | Compound NOT metabolized | – |
| O=C(O)CCc1nc(-c2ccccc2)c(-c2ccccc2)o1 [OXAPROZIN] | Compound NOT metabolized | Compound NOT metabolized | Compound NOT metabolized | Compound NOT metabolized | Compound metabolized | Compound NOT metabolized | Compound NOT metabolized | Compound NOT metabolized | Compound NOT metabolized | Compound NOT metabolized | Compound NOT metabolized | Compound metabolized | – | Compound metabolized | Compound NOT metabolized | Compound NOT metabolized | Compound NOT metabolized | Compound NOT metabolized | Compound metabolized | – |
